“And” between values parts separate entries of the source, which are not always exact repeats. Equal entries are not always repeated.
Experiments:
[1] = system: LHGFR0N7C; assay: Specificity of purified LHGFR0N7C, emission ratio with 240 μM compounds; assay type: binding, Pseudomonas putida W619; details: 240 μM compound
[2] = system: LHGFR0N7C expressed in E. coli BL21(DE3); assay: Specificity of LHGFR0N7C expressed in E. coli BL21(DE3), 1 mM compounds; assay type: cell-based; details: Supplementary Fig. 13c
Experimental: (§1) To characterize the sensitivity and specificity of LHGFR expressed in E. coli BL21(DE3), 90 μL cell suspensions following 8 h carbon starvation were mixed with 10 μL increasing concentrations of L-2-HG or other compounds, and then added into a black 96-well plate (total 100 μL/per well), the fluorescence intensities were determined using an EnSight microplate reader (PerkinElmer, USA) and the following instrument settings: excitation at 430 nm, emission at 485 nm (mTFP) and 528 nm (Venus), time intervals of 5 min, the temperature at 37 °C, and shake at 180 rpm.

[3] = system: LHGFR0N3C expressed in E. coli BL21(DE3); assay: Specificity of LHGFR0N3C expressed in E. coli BL21(DE3), 1 mM compounds; assay type: cell-based; details: for Emission ratio: 1 mM compound, Fig. 5c
Experimental: as §1

[4] = system: LHGFR0N3C; assay: Specificity of purified LHGFR0N3C, emission ratio with 240 μM compounds; assay type: binding, Pseudomonas putida W619; details: 240 μM compound
[5] = system: LHGFR0N3C; assay: Influence of other compounds on the response of purified LHGFR0N3C to L-2-HG; assay type: binding, Pseudomonas putida W619; details: Suppl. Fig. 9a; L-2-HG alone or with the compound; three replicates
How it was run: (§2)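 Purified L-2-HG biosensors were mixed 3:1 with test compounds in 50 mM Tris-HCl pH 7.4, excited at 430 nm, and the 528 nm (Venus)/485 nm (mTFP) emission was read. Responses were fitted with a Hill model giving apparent Kd and Hill slope.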

[6] = system: LhgR; assay: EMSA, effect of compounds on LhgR binding to the lhgO promoter region F1; parameters: species or system Pseudomonas putida W619; details: 50 mM compound, 10 nM F1, 60 nM LhgR
How it was run: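 Purified LhgR was preincubated 15 min at 30 °C with candidate effectors (L-lysine, 5-aminovalerate, glutarate, L-2-HG, D-2-HG, 2-KG, succinate), then 30 min at 30 °C with 10 nM F1 or F2 DNA. Buffer: 10 mM Tris-HCl pH 7.4, 50 mM KCl, 10% glycerol, 1 mM DTT. Shift seen on 6% native PAGE with SYBR green I.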

[7] = system: LhgO; assay: Enzymatic assay of LhgO in crude extracts of P. putida KT2440 derivatives grown on different carbon sources (induction of lhgO under LhgR control); assay type: cell-based, Pseudomonas putida
Experimental: The cells were harvested at mid-log phase, washed twice and resuspended in phosphate-buffered saline (PBS), then lysed by sonication on ice after the addition of 1 mM phenylmethylsulfonyl fluoride (PMSF). […] Protein concentrations of the supernatants were determined using the Bradford protein assay kit (Sangon, China). […] The 800 μL reaction solution contained 0.1 mM […], 0.05 mM DCPIP, 0.2 mM phenazine methosulfate (PMS) in PBS and 40 μL crude extracts.

[8] = system: LHGFR0N7C; assay: Influence of other compounds on the response of purified LHGFR0N7C to L-2-HG; assay type: binding, Pseudomonas putida W619; details: Suppl. Fig. 9b; L-2-HG alone or with the compound; three replicates
How it was run: as §2

SMILES: O=C(O)CCCC(=O)O [Glutarate, glutarate]
- Emission ratio [1]: 1.71 (2×) and 1.717
- Induction of emission ratio changes [1]: None
- normalized emission ratio of biosensor expressed in E. coli ([2]; time 0 min): 1.0192 and 1.012 and 1.0143
- normalized emission ratio of biosensor expressed in E. coli ([2]; time 5 min): 1.029 and 1.007 and 0.9939
- normalized emission ratio of biosensor expressed in E. coli ([2]; time 10 min): 1.033 and 1.008 (2×)
- normalized emission ratio of biosensor expressed in E. coli ([2]; time 15 min): 1.028 and 1.024 and 1.005
- normalized emission ratio of biosensor expressed in E. coli ([2]; time 20 min): 1.023 and 1.015 and 1.006
- normalized emission ratio of biosensor expressed in E. coli ([2]; time 25 min): 1.0228 and 1.021 and 1.005
- normalized emission ratio of biosensor expressed in E. coli ([2]; time 30 min): 1.026 and 1.014 and 1.016
- normalized emission ratio of biosensor expressed in E. coli ([2]; time 35 min): 1.019 and 1.016 (2×)
- normalized emission ratio of biosensor expressed in E. coli ([2]; time 40 min): 1.0289 and 1.022 and 1.012
- normalized emission ratio of biosensor expressed in E. coli ([2]; time 45 min): 1.023 and 1.017 and 1.024
- normalized emission ratio of biosensor expressed in E. coli ([2]; time 50 min): 1.027 and 1.014 and 1.019
- normalized emission ratio of biosensor expressed in E. coli ([2]; time 55 min): 1.028 and 1.018 and 1.023
- normalized emission ratio of biosensor expressed in E. coli ([2]; time 60 min): 1.03 and 1.018 and 1.0254
- normalized emission ratio of biosensor expressed in E. coli ([2]; time 65 min): 1.027 and 1.013 and 1.037
- normalized emission ratio of biosensor expressed in E. coli ([2]; time 70 min): 1.027 and 1.018 and 1.0281
- normalized emission ratio of biosensor expressed in E. coli ([2]; time 75 min): 1.034 and 1.022 and 1.035
- normalized emission ratio of biosensor expressed in E. coli ([2]; time 80 min): 1.0287 and 1.026 and 1.039
- normalized emission ratio of biosensor expressed in E. coli ([2]; time 85 min): 1.03 and 1.021 and 1.038
- normalized emission ratio of biosensor expressed in E. coli ([2]; time 90 min): 1.036 and 1.0239 and 1.043
- Emission ratio ([3]; 0 min): 1.019 and 1.014 and 1.009
- Emission ratio ([3]; 5 min): 1.014 and 1.015 and 0.998
- Emission ratio ([3]; 10 min): 1.024 and 1.012 (2×)
- Emission ratio ([3]; 15 min): 1.024 and 1.01 and 1.013
- Emission ratio ([3]; 20 min): 1.025 and 1.007 and 1.004
- Emission ratio ([3]; 25 min): 1.02 and 1.008 and 1.012
- Emission ratio ([3]; 30 min): 1.022 and 1.0136 and 1.013
- Emission ratio ([3]; 35 min): 1.0109 and 1.008 and 1.004
- Emission ratio ([3]; 40 min): 1.017 and 1.002 and 1.012
- Emission ratio ([3]; 45 min): 1.022 and 1.0116 and 1.014
- Emission ratio ([3]; 50 min): 1.01 and 1 and 1.016
- Emission ratio ([3]; 55 min): 1.008 and 1.012 and 1.02
- Emission ratio ([3]; 60 min): 1.014 and 1.01 and 1.011
- Emission ratio ([3]; 65 min): 1.021 and 1.007 and 1.017
- Emission ratio ([3]; 70 min): 1.032 and 1.006 and 1.011
- Emission ratio ([3]; 75 min): 1.016 and 1.008 and 1.028
- Emission ratio ([3]; 80 min): 0.9989 and 1.018 and 1.024
- Emission ratio ([3]; 85 min): 1.011 and 1.013 and 1.026
- Emission ratio ([3]; 90 min): 1.005 and 1.016 and 1.027
- Increase of the emission ratio in E. coli BL21(DE3) ([3]; 1 mM exogenous compound): could not
- Emission ratio [4]: 1.395 and 1.399 and 1.404
- Induction of emission ratio changes [4]: None
- Emission ratio [5]: 2.055 and 2.045 and 2.058
- Effect on LhgR binding to the lhgO promoter region F1 [6]: observed only in the presence of L-2-HG
- LhgO activity ([7]; crude extract of DcsiRDcsiDDlhgO-pME6032-F2-lhgR-F1-lhgO grown with the compound as sole carbon source): no activity of LhgO was detected
- LhgO activity ([7]; crude extract of DcsiRDlhgO-pME6032-F2-lhgR-F1-lhgO grown with the compound as sole carbon source): 0.02427 and 0.01721 and 0.01877
- LhgO activity ([7]; crude extract of DcsiRDlhgO-pME6032-F2-lhgR-F1-lhgO grown with the compound as sole carbon source, listed as glutarate): activity of LhgO was also detected
- LhgO activity ([7]; crude extract of DcsiRDlhgO-pME6032 grown in MSM with the compound as sole carbon source): 7.09E-04 and 9.66E-04 and 0.00113
- Induction of lhgO expression / effector molecule of LhgR ([7]; gene segment F2-lhgR-F1-lhgO in P. putida KT2440 derivatives): neither D-2-HG nor glutarate can serve as the effector molecule of LhgR
- Emission ratio [8]: 2.576 and 2.574 and 2.627

Reference: paper PMC8206213, “An L-2-hydroxyglutarate biosensor based on specific transcriptional regulator LhgR” (Nature Communications, 2021)
